Results: the kinase profiling compilation of Christmann-Franck et al. (2016)
Where “and” joins values, the source holds several entries; their conditions need not be identical. Identical values can stand only once.

Experiments:
Test in all cases: radiometric filter-binding kinase assay, Kinase HotSpot
Conditions in all cases: compound 0.5 µM; ATP 10 µM
SGK3 (human) = SGK3 (human) (UniProt Q96BR1)
TEC (human) = TEC (human) (UniProt P42680)
PRKD3 (human) = PRKD3 (human) (UniProt O94806)
TSSK2 (human) = TSSK2 (human) (UniProt Q96PF2)
CAMK2D (human) = CAMK2D (human) (UniProt Q13557)
STK38 (human) = STK38 (human) (UniProt Q15208)
PRKG1 (human) = PRKG1 (human) (UniProt Q13976)
SYK (human) = SYK (human) (UniProt P43405)
HIPK1 (human) = HIPK1 (human) (UniProt Q86Z02)
DAPK3 (human) = DAPK3 (human) (UniProt O43293)
CDK4 CCND3 (human) = CDK4 CCND3 (human) (UniProt P30281+P11802)
ITK (human) = ITK (human) (UniProt Q08881)
EPHB3 (human) = EPHB3 (human) (UniProt P54753)
PRKACA (human) = PRKACA (human) (UniProt P17612)
CLK1 (human) = CLK1 (human) (UniProt P49759)
CAMK2G (human) = CAMK2G (human) (UniProt Q13555)
RET (human) = RET (human) (UniProt P07949)
TBK1 (human) = TBK1 (human) (UniProt Q9UHD2)
FRK (human) = FRK (human) (UniProt P42685)
SRPK3 (human) = SRPK3 (human) (UniProt Q9UPE1)
JAK3 JH1 JH2 (human) = JAK3 JH1 JH2 (human) (UniProt P52333)
STK24 (human) = STK24 (human) (UniProt Q9Y6E0)
IKBKE (human) = IKBKE (human) (UniProt Q14164)
CDK6 CCND3 (human) = CDK6 CCND3 (human) (UniProt P30281+Q00534)
AKT3 (human) = AKT3 (human) (UniProt Q9Y243)
PRKCA (human) = PRKCA (human) (UniProt P17252)
PNCK (human) = PNCK (human) (UniProt Q6P2M8)
SRPK2 (human) = SRPK2 (human) (UniProt P78362)
MAP4K2 (human) = MAP4K2 (human) (UniProt Q12851)
CDK4 CCND1 (human) = CDK4 CCND1 (human) (UniProt P24385+P11802)
IRAK1 (human) = IRAK1 (human) (UniProt P51617)
CHEK1 (human) = CHEK1 (human) (UniProt O14757)
CAMK2A (human) = CAMK2A (human) (UniProt Q9UQM7)
TGFBR2 (human) = TGFBR2 (human) (UniProt P37173)
MKNK2 (human) = MKNK2 (human) (UniProt Q9HBH9)
PAK1 (human) = PAK1 (human) (UniProt Q13153)
CDK2 CCNE1 (human) = CDK2 CCNE1 (human) (UniProt P24941+P24864)
CAMK2B (human) = CAMK2B (human) (UniProt Q13554)
VRK1 (human) = VRK1 (human) (UniProt Q99986)
DAPK2 (human) = DAPK2 (human) (UniProt Q9UIK4)
TAOK1 (human) = TAOK1 (human) (UniProt Q7L7X3)
PBK (human) = PBK (human) (UniProt Q96KB5)

PRKG1 (human), sequence (Q13976 whole entry, looked up): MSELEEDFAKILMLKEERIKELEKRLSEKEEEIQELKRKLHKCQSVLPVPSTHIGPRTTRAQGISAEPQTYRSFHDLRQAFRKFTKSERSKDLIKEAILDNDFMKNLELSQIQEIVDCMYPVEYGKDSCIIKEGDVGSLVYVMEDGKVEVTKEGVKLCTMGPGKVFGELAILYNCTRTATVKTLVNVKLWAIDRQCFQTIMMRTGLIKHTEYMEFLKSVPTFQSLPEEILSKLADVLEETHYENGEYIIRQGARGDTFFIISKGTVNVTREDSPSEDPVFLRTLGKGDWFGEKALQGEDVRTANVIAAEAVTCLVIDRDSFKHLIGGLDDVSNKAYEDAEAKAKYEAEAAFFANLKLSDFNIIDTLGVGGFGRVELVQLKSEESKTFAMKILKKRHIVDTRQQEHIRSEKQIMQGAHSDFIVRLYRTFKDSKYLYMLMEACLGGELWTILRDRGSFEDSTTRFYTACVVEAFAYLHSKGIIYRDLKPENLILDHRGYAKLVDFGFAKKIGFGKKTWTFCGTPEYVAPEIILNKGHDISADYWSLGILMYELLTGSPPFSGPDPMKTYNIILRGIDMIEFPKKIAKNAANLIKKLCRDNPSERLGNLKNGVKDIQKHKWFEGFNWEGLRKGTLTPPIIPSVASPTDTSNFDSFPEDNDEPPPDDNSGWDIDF
CAMK2B (human), sequence (Q13554 whole entry, looked up): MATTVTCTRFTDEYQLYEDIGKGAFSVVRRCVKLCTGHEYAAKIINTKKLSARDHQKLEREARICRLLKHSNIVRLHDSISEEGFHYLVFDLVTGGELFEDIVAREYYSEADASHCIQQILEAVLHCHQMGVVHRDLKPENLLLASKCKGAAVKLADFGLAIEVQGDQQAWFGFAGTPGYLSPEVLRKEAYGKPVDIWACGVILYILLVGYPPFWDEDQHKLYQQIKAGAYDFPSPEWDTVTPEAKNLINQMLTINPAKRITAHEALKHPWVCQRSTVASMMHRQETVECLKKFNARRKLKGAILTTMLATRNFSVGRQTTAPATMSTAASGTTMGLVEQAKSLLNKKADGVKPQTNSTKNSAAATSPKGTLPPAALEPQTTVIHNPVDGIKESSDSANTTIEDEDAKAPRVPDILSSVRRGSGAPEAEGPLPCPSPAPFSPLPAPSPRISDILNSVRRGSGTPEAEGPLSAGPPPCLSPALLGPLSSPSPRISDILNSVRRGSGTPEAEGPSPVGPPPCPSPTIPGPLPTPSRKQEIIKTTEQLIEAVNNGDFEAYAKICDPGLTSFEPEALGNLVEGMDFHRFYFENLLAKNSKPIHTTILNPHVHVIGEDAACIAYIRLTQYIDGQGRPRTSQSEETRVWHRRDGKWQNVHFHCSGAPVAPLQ
TBK1 (human), sequence (Q9UHD2 whole entry, looked up): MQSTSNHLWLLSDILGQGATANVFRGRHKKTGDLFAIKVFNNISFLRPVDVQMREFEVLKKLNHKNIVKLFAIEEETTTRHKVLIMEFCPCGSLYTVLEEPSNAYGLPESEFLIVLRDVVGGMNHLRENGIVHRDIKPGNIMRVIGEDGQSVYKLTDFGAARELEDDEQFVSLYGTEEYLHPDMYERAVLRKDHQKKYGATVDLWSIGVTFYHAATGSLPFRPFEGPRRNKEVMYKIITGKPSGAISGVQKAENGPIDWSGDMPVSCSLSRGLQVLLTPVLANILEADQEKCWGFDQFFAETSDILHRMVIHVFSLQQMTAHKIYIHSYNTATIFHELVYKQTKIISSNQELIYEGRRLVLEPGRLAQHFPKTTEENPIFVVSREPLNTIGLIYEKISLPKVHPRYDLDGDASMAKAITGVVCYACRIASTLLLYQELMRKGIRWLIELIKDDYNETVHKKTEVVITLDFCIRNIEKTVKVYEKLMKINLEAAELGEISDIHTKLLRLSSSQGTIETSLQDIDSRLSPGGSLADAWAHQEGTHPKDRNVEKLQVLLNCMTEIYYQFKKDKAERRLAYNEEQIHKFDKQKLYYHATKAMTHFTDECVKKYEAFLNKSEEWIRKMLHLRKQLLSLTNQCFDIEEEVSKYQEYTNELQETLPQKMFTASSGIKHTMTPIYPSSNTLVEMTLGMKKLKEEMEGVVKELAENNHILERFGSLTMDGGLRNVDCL
TSSK2 (human), sequence (Q96PF2 whole entry, looked up): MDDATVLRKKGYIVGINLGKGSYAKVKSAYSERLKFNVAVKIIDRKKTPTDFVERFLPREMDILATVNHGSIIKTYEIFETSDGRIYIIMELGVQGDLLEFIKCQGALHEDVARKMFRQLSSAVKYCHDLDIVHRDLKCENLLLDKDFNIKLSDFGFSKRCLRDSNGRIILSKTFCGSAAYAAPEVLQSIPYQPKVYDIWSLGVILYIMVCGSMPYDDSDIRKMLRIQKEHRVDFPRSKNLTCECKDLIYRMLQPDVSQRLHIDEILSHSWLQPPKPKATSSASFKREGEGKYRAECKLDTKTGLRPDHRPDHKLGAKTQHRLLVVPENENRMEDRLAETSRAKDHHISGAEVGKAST
AKT3 (human), sequence (Q9Y243 whole entry, looked up): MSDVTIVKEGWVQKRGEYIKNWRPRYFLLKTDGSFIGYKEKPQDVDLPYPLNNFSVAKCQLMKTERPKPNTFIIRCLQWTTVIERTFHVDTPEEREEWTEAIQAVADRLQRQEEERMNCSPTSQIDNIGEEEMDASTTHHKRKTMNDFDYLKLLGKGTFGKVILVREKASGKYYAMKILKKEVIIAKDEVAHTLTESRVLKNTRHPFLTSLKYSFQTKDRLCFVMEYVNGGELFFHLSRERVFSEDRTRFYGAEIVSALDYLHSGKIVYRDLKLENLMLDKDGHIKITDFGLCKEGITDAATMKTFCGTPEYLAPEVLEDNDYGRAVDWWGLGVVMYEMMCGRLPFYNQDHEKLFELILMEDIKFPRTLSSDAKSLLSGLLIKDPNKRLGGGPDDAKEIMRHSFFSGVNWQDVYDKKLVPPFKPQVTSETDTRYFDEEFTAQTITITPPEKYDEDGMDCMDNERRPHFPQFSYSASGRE
PNCK (human), sequence (Q6P2M8 whole entry, looked up): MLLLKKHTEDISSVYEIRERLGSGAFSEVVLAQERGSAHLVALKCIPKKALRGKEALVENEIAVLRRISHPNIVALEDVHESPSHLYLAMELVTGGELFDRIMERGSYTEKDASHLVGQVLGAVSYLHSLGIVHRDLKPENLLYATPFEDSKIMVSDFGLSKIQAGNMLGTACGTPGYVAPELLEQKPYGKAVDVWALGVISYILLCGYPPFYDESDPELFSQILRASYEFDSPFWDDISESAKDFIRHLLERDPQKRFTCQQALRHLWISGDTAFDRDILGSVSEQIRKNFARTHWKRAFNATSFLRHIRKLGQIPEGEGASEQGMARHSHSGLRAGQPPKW
CAMK2D (human), sequence (Q13557 whole entry, looked up): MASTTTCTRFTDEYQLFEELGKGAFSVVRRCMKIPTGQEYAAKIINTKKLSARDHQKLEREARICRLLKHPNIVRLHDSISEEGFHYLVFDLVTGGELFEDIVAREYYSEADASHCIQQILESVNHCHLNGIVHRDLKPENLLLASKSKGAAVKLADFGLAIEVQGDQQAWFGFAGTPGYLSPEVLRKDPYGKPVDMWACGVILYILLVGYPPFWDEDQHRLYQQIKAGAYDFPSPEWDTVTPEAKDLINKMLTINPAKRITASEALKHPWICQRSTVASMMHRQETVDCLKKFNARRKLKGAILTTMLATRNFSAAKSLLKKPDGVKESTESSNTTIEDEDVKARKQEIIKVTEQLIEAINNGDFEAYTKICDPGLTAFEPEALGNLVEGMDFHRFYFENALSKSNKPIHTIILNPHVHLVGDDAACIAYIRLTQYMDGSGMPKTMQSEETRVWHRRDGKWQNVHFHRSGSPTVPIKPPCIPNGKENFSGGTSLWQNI
TEC (human), sequence (P42680 whole entry, looked up): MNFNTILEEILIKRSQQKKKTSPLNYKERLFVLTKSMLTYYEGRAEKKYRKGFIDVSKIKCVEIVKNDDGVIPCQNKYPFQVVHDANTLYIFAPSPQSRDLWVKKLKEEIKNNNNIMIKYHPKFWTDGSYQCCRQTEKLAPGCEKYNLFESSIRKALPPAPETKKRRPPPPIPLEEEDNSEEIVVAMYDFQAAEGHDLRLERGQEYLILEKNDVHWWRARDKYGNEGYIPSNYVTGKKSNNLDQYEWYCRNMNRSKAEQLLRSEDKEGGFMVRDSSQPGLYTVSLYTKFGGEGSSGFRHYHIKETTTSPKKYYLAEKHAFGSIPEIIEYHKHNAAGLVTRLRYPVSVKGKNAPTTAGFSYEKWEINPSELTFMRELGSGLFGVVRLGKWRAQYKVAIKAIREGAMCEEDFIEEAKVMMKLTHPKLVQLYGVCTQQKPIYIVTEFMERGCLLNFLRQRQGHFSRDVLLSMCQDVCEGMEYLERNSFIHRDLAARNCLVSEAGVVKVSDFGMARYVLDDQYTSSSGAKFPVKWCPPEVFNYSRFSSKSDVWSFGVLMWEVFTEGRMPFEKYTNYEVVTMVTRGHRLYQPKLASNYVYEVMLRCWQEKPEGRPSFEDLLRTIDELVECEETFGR
CDK6 CCND3 (human), sequence (P30281 whole entry, looked up): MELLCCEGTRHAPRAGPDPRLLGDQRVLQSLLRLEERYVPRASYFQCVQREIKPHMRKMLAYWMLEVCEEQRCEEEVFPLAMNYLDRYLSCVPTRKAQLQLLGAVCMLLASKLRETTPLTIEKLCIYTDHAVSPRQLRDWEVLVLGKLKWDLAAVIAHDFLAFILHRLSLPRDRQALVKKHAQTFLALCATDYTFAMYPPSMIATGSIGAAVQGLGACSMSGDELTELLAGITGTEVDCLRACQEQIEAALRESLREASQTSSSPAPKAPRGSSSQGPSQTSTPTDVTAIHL
CDK6 CCND3 (human), sequence (Q00534 whole entry, looked up): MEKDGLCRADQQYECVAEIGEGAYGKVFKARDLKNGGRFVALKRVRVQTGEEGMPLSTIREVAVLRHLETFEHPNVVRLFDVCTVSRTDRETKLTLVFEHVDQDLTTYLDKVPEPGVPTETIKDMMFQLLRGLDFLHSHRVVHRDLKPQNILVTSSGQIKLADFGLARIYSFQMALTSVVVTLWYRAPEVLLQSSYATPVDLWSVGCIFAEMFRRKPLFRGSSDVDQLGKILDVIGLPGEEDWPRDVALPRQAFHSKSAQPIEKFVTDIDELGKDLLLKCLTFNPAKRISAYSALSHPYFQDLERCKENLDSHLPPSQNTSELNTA

Molecule `Nc1ccc2ncnc(NCCc3ccc(Oc4ccccc4)cc3)c2c1` has a residual activity (SGK3 (human)) of 106%, a residual activity (TEC (human)) of 88.3% and a residual activity (PRKD3 (human)) of 98.1%. It also gave a residual activity (TSSK2 (human)) of 94.5%, a residual activity (CAMK2D (human)) of 98.9% and a residual activity (STK38 (human)) of 97.9%. The residual activity (PRKG1 (human)) was 93.1% and 94.5%, the residual activity (SYK (human)) was 102% and the residual activity (HIPK1 (human)) was 104%. For the same molecule, the residual activity (DAPK3 (human)) was 104%, the residual activity (CDK4 CCND3 (human)) was 109% and the residual activity (ITK (human)) was 104%. For the same molecule, the residual activity (EPHB3 (human)) was 97.3%, the residual activity (PRKACA (human)) was 88.6% and the residual activity (CLK1 (human)) was 101%. It also gave a residual activity (CAMK2G (human)) of 118%, a residual activity (RET (human)) of 101% and a residual activity (TBK1 (human)) of 100%. It also gave a residual activity (FRK (human)) of 100%, a residual activity (SRPK3 (human)) of 96.6% and a residual activity (JAK3 JH1 JH2 (human)) of 96.9%. For the same molecule, the residual activity (STK24 (human)) was 107%, the residual activity (IKBKE (human)) was 95.6% and the residual activity (CDK6 CCND3 (human)) was 100%. For the same molecule, the residual activity (AKT3 (human)) was 104%, the residual activity (PRKCA (human)) was 103% and the residual activity (PNCK (human)) was 98.5%. For the same molecule, the residual activity (SRPK2 (human)) was 95.3%, the residual activity (MAP4K2 (human)) was 100% and the residual activity (CDK4 CCND1 (human)) was 102%. It also gave a residual activity (IRAK1 (human)) of 107%, a residual activity (CHEK1 (human)) of 101% and a residual activity (CAMK2A (human)) of 71.3%. The residual activity (TGFBR2 (human)) was 110%, the residual activity (MKNK2 (human)) was 104% and the residual activity (PAK1 (human)) was 94.9%. The residual activity (CDK2 CCNE1 (human)) was 95%, the residual activity (CAMK2B (human)) was 95.1% and the residual activity (VRK1 (human)) was 99.5%. It also gave a residual activity (DAPK2 (human)) of 80.4%, a residual activity (TAOK1 (human)) of 84.2% and a residual activity (PBK (human)) of 98.2%.
